Assay results: US9249129B2, “Morpholino substituted urea derivatives as mTOR inhibitors” (CELLZOME LIMITED, priority 2010, dated 2016)
Read-outs that look alike come from different tables or passages of the source.

Tests used:
[1] = target: T1, DNA-dependent protein kinase (DNA-PK) (Homo sapiens, UniProt P78527); assay: kinobeads assay, DNA-PK (dot blot detection); format: binding
T1 construct: endogenous in cells; host or cells: Jurkat cells (ATCC TIB-152, clone E6-1), lysate
Outline: (§1)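 Jurkat cell lysate (5 mg/ml protein) was incubated with test compounds and kinobeads (immobilized phenylthiazole and phenylmorpholin-chromen ligands) for 2 h in the cold with shaking. Bead-bound kinase was SDS-eluted and quantified by antibody dot blot with infrared detection. IC50 values came from dose-response curves.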

PI3Kβ = target: T2, PI3Kβ (Homo sapiens, UniProt P42338); assay: kinobeads assay, PI3K beta (dot blot detection); format: binding; details: Table 4, read-out: Inhibition values (IC50) PI3Kb
T2 construct: endogenous in cells; host or cells: Jurkat cells (ATCC TIB-152) lysate, the only lysate described

mTOR = target: T3, mTOR (Homo sapiens, UniProt P42345); assay: mTOR kinobeads assay (dot blot detection); format: binding
T3 construct: endogenous in cells; host or cells: Jurkat cells (ATCC TIB-152, clone E6-1), lysate
Outline: as §1

PI3K delta (PI3Kd) = target: T4, PI3K delta (PI3Kd) (Homo sapiens, UniProt O00329); assay: kinobeads assay, PI3K delta (dot blot detection); format: binding
T4 construct: endogenous in cells; host or cells: Jurkat cells (ATCC TIB-152, clone E6-1), lysate
Outline: as §1

PI3Kγ = target: T5, PI3Kγ (Homo sapiens, UniProt P48736); assay: kinobeads assay, PI3K gamma (dot blot detection); format: binding; details: Table 4, read-out: Inhibition values (IC50) PI3Kg
T5 construct: endogenous in cells; host or cells: Jurkat cells (ATCC TIB-152) lysate, the only lysate described

[2] = system: S6RP serine-240/244 phosphorylation in HEK293T/17 cells; assay: In vitro phospho-S6 cellular assay (pS6RP S240/244); format: cell-based; details: Homo sapiens, Table 6, 2 hours, S6RP Ser240/244, read-out: pS6 (phospho-S6 cell assay data, activity level)
Description: In Vitro Phospho-S6 and Phospho-Akt Cellular Assay
Activation of mTOR signaling results in phosphorylation of several downstream targets. In cells, mTOR exists in two different protein complexes. The mTOR Complex-1 (mTORC1) phosphorylates and activates S6 Kinase 1 (S6K1) and S6 Kinase 2 (S6K2) (also known as p70S6K) which then phosphorylate S6 Ribosomal Protein (S6RP) (also known as RPS6). S6RP is phosphorylated on serine 235, serine 236, serine 240 and serine 244 by both pS6K1 and pS6K2. The mTOR Complex-2 (mTORC2) phosphorylates AKT on serine 473 which activates the AKT signaling pathway.
The assay measures a test compound's inhibition of S6RP serine-240/244 phosphorylation and inhibition of Akt serine-473 phosphorylation in human embryonic kidney derived HEK293T/17 cells (ATCC CRL-11268).
The HEK293T/17 cell line is maintained in DMEM media (Invitrogen catalogue number 41965-039) supplemented with 10% FCS at 37° C. in a 5% CO2 humidified incubator.
Cells are seeded in 96-well plates at 40,000 cells/well (pS6RP S240/244 assay) or 80,000 cells/well (pAkt 5473 assay) in 90 μl growth media (DMEM, 2% FCS). Plates are incubated for 1 hour in a humidified incubator to allow the cells to adhere. Cells are treated with 8 concentrations of test compounds or DMSO alone for controls (final DMSO concentration 0.1%) and incubated at 37° C. for 2 hours. Then 20 μl of 5× concentrated lysis buffer (750 mM NaCl, 100 mM Tris pH7.4, 5 mM EDTA, 5 mM EGTA, 5% Triton X-100) is added, plates are sealed and incubated for 15 minutes at 4° C. with gentle shaking. After cell lysis, 25 μl cell lysate is transferred to a MesoScale plate coated with an antibody to pS6RP Ser240/244 (MesoScale Discovery K150DGD-3) or an antibody to pAkt Ser 473 (MesoScale Discovery K151DGD-3). Plates have been blocked before by incubation with 150 μl MesoScale Discovery Blocking Solution-A for 1 hour at room temperature followed by washing with 150 μl 1× Tris wash buffer per well. After the transfer of the cell lysate to the MSD plate, the pS6RP (or pAkt) protein is captured on the coated antibody by incubation at room temperature for 1 hour with gentle shaking. After the capture step the plate is washed three times with 150 μl of 1× Tris wash buffer per well. Then 25 μl detection antibody conjugated with a Sulfo-Tag is added and incubated for 1 hour at room temperature with gentle shaking. Subsequently the antibody solution is removed and the plate is washed 3 times with 150 μl 1× Tris wash buffer per well and 150 μl Read buffer is added. The plates are analysed on a MSD 2400 Plate Reader (MesoScale Discovery). Data analysis is performed using nonlinear regression for a sigmoidal dose-response with a variable slope.

PI3Kα = target: T6, PI3Kα (Homo sapiens, UniProt P42336); assay: kinobeads assay, PI3K alpha (dot blot detection); format: binding; details: Table 4, read-out: Inhibition values (IC50) PI3Ka
T6 construct: endogenous in cells; host or cells: Jurkat cells (ATCC TIB-152) lysate, the only lysate described

[3] = Table 2, Jurkat cell lysate, read-out: Inhibition values (IC50) DNAPK
[4] = Table 4, read-out: Inhibition values (IC50) DNAPK
[5] = Table 2, Jurkat cell lysate, read-out: Inhibition values (IC50) mTor
[6] = Table 4, read-out: Inhibition values (IC50) mTOR
[7] = Table 2, Jurkat cell lysate, read-out: Inhibition values (IC50) PI3Kd
[8] = Table 4, read-out: Inhibition values (IC50) PI3Kd

T1 sequence (P78527 whole entry): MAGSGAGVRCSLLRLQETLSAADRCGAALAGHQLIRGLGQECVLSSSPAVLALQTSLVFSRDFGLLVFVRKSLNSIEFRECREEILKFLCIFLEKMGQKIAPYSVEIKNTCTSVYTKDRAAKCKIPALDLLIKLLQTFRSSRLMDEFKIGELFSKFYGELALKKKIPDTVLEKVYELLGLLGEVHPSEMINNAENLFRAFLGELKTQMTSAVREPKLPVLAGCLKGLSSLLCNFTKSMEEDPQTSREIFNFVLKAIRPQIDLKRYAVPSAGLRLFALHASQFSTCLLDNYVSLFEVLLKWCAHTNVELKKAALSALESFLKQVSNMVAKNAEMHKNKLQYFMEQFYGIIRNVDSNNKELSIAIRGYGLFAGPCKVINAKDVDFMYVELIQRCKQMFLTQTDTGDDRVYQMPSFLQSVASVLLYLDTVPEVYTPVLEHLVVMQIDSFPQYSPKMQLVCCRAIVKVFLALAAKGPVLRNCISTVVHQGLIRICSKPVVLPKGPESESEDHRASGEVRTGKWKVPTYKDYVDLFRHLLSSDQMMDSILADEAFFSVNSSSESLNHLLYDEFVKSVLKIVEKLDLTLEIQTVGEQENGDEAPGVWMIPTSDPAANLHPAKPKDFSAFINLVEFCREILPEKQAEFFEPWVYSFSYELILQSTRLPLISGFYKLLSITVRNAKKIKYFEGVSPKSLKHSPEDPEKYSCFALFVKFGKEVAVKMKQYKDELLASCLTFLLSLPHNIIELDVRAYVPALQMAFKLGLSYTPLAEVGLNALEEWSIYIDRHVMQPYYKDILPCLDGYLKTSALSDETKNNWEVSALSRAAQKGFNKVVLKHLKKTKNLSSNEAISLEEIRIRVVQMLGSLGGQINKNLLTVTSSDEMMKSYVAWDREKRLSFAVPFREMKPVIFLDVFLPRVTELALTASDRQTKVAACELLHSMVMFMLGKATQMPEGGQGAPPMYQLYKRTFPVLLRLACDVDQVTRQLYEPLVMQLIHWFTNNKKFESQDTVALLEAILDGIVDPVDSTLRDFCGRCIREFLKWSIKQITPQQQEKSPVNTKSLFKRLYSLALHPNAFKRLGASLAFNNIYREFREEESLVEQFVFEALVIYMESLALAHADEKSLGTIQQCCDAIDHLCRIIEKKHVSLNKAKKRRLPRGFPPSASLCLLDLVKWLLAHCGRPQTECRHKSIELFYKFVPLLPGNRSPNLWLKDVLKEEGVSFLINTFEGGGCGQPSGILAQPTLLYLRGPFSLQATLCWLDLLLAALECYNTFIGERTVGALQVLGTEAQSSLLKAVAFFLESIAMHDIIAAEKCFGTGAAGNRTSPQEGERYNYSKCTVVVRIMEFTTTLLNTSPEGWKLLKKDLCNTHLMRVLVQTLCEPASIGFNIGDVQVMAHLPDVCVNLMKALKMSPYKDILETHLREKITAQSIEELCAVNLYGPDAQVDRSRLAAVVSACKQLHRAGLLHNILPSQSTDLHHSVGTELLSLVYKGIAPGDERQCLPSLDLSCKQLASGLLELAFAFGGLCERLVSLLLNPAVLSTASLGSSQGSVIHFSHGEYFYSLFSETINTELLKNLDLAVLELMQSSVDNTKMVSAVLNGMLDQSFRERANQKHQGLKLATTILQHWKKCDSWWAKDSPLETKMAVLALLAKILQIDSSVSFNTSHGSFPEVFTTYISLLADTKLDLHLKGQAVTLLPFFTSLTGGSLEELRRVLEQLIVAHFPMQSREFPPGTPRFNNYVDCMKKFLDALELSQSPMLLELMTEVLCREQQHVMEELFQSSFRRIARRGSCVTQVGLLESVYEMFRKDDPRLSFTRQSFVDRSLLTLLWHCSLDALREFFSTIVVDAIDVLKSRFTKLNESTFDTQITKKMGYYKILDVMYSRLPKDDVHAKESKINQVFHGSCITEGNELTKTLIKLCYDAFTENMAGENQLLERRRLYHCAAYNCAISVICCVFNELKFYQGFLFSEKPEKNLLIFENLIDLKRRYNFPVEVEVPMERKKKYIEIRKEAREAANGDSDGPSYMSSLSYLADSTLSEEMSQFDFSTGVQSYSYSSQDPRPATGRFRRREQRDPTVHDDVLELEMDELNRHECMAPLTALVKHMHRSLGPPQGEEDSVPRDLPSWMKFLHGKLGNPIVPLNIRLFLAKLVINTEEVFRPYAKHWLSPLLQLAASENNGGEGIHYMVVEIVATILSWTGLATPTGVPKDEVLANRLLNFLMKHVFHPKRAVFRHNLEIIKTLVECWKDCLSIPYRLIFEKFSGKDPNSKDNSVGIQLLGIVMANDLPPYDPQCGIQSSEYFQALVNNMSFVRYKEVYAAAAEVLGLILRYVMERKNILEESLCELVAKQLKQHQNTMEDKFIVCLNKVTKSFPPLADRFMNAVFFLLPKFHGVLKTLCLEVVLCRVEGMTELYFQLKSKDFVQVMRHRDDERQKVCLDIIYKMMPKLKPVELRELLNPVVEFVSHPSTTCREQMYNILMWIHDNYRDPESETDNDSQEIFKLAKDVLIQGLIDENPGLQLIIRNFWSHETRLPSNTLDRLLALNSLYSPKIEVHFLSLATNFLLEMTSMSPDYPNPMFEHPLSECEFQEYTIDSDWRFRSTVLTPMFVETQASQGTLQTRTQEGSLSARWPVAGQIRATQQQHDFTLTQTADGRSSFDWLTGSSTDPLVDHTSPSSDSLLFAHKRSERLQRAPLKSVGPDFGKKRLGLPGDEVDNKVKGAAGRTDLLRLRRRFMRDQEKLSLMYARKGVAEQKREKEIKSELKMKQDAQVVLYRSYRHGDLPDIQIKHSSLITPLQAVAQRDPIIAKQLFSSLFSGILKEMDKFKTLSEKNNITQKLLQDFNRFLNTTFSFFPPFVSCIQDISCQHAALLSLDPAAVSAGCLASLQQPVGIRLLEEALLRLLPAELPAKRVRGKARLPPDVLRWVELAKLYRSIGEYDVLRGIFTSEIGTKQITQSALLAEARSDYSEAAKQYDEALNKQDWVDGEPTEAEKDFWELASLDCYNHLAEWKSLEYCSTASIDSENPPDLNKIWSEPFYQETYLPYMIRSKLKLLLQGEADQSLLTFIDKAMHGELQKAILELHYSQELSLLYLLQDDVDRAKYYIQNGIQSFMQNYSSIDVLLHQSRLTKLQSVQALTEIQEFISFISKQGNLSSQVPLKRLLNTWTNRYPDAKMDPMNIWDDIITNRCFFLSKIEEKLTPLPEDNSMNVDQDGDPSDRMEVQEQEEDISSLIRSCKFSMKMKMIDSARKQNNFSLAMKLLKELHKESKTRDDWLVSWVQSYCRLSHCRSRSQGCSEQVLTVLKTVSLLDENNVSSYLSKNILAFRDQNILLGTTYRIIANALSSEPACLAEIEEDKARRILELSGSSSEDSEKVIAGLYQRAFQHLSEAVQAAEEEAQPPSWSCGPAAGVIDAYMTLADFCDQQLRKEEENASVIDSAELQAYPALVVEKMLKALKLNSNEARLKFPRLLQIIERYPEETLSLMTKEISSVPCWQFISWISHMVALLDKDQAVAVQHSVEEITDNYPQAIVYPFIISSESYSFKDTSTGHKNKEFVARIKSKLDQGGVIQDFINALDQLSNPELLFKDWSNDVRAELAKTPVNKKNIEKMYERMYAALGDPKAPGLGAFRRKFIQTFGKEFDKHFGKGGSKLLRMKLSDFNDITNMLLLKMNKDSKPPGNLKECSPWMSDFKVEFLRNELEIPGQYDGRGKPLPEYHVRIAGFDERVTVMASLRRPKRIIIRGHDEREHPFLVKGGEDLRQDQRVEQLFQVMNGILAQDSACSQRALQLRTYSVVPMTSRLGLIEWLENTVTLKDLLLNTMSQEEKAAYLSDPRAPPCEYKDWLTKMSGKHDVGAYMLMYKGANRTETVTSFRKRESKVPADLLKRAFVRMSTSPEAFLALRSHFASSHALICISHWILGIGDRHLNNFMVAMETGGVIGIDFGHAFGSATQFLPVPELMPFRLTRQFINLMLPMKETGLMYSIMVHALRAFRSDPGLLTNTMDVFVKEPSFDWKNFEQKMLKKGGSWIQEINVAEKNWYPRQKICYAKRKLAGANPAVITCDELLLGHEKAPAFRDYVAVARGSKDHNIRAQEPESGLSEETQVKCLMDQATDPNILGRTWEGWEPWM

| SMILES | IC50 [1, 3] [µM] | IC50 [1, 4] [µM] | IC50 (PI3Kβ) [µM] | IC50 (mTOR; [5]) [µM] | IC50 (mTOR; [6]) [µM] | IC50 (PI3K delta (PI3Kd); [7]) [µM] | IC50 (PI3K delta (PI3Kd); [8]) [µM] | IC50 (PI3Kγ) [µM] | IC50 (PI3Kα) [µM] | IC50 [2] [µM] |
| --- | --- | --- | --- | --- | --- | --- | --- | --- | --- | --- |
| CCNC(=O)Nc1ccc(-c2nccc(N3CCOC[C@@H]3C)n2)cc1 [Example 37, (S)-1-ethyl-3-(4-(4-(3-methylmorpholino)pyrimidin-2-yl)phenyl)urea] | ≥ 10 | ≥ 10 | ≥ 10 | 1 to 10 | 0.1 to 1 | ≥ 10 | ≥ 10 | ≥ 10 | ≥ 10 | 0.1 to 1 |
| C[C@H]1COCCN1c1ccnc(-c2ccc(NC(=O)NCC(F)F)cc2)n1 [Example 54, (S)-1-(2,2-difluoroethyl)-3-(4-(4-(3-methylmorpholino)pyrimidin-2-yl)phenyl)urea] | ≥ 10 | ≥ 10 | ≥ 10 | 0.1 to 1 | 0.1 to 1 | ≥ 10 | ≥ 10 | ≥ 10 | ≥ 10 | 0.1 to 1 |
| C[C@H]1COCCN1c1cc(-c2ccncc2)nc(-c2ccc(NC(=O)NC3CC3)cc2)n1 [Example 25, (S)-1-cyclopropyl-3-(4-(4-(3-methylmorpholino)-6-(pyridin-4-yl)pyrimidin-2-yl)phenyl)urea] | ≥ 10 | ≥ 10 | ≥ 10 | 0.1 to 1 | 0.1 to 1 | ≥ 10 | ≥ 10 | ≥ 10 | ≥ 10 | 0.1 to 1 |
| C[C@H]1COCCN1c1nc(-c2ccc(NC(=O)NCC(N)=O)cc2)cc(-c2cc(F)ccc2S(C)(=O)=O)n1 [Example 70, (S)-2-(3-(4-(6-(5-fluoro-2-(methylsulfonyl)phenyl)-2-(3-methylmorpholino)pyrimidin-4-yl)phenyl)ureido)acetamide] | ≥ 10 | ≥ 10 | ≥ 10 | 1 to 10 | 1 to 10 | ≥ 10 | ≥ 10 | ≥ 10 | ≥ 10 | 0.1 to 1 |
| COC1CC(NC(=O)Nc2ccc(-c3cc(-c4cc(F)ccc4S(C)(=O)=O)nc(N4CCOC[C@@H]4C)n3)cc2)C1 (stereo partly drawn) [Example 79, (S)-1-(4-(6-(5-fluoro-2-(methylsulfonyl)phenyl)-2-(3-methylmorpholino)pyrimidin-4-yl)phenyl)-3-(3-methoxycyclobutyl)urea] | – | ≥ 10 | ≥ 10 | – | 1 to 10 | – | ≥ 10 | ≥ 10 | ≥ 10 | 0.1 to 1 |
| C[C@H]1COCCN1c1nc(-c2ccc(NC(=O)NC3CC3)cc2)cc(-c2cccnc2[S+](C)[O-])n1 (stereo partly drawn) [Example 45, 1-cyclopropyl-3-(4-(2-((S)-3-methylmorpholino)-6-(2-(methylsulfinyl)pyridin-3-yl)pyrimidin-4-yl)phenyl)urea] | ≥ 10 | ≥ 10 | 1 to 10 | < 0.1 | < 0.1 | 1 to 10 | 1 to 10 | ≥ 10 | 1 to 10 | 0.1 to 1 |
| C[C@H]1COCCN1c1nc(-c2ccc(NC(=O)NC3COC3)cc2)cc(-c2cc(F)ccc2S(C)(=O)=O)n1 [Example 86, (S)-1-(4-(6-(5-fluoro-2-(methylsulfonyl)phenyl)-2-(3-methylmorpholino)pyrimidin-4-yl)phenyl)-3-(oxetan-3-yl)urea] | – | ≥ 10 | ≥ 10 | – | 0.1 to 1 | – | ≥ 10 | ≥ 10 | ≥ 10 | 0.1 to 1 |
| C[C@H]1COCCN1c1cc(-c2ccccc2S(C)(=O)=O)nc(-c2ccc(NC(=O)NCCO)cc2)n1 [Example 80, (S)-1-(2-hydroxyethyl)-3-(4-(4-(3-methylmorpholino)-6-(2-(methylsulfonyl)phenyl)pyrimidin-2-yl)phenyl)urea] | – | ≥ 10 | ≥ 10 | – | < 0.1 | – | ≥ 10 | ≥ 10 | ≥ 10 | < 0.1 |

Further lines, with some results ahead:

| IC50 [1, 3] [µM] | IC50 [1, 4] [µM] | IC50 (PI3Kβ) [µM] | IC50 (mTOR; [5]) [µM] | IC50 (mTOR; [6]) [µM] | IC50 (PI3K delta (PI3Kd); [7]) [µM] | IC50 (PI3K delta (PI3Kd); [8]) [µM] | IC50 (PI3Kγ) [µM] | IC50 (PI3Kα) [µM] | SMILES | IC50 [2] [µM] |
| --- | --- | --- | --- | --- | --- | --- | --- | --- | --- | --- |
| ≥ 10 | ≥ 10 | ≥ 10 | 1 to 10 | 1 to 10 | ≥ 10 | ≥ 10 | ≥ 10 | ≥ 10 | C[C@H]1COCCN1c1nccc(-c2ccc(NC(=O)NCCO)cc2)n1 [Example 58, (S)-1-(2-hydroxyethyl)-3-(4-(2-(3-methylmorpholino)pyrimidin-4-yl)phenyl)urea] | 0.1 to 1 |
| – | ≥ 10 | ≥ 10 | – | 1 to 10 | – | ≥ 10 | ≥ 10 | ≥ 10 | C[C@H]1COCCN1c1nc(-c2ccc(NC(=O)NC3CC3)cc2)cc(-c2ccccc2S(=O)(=O)N2CCCC2)n1 [Example 88, (S)-1-cyclopropyl-3-(4-(2-(3-methylmorpholino)-6-(2-(pyrrolidin-1-ylsulfonyl)phenyl)pyrimidin-4-yl)phenyl)urea] | < 0.1 |
| ≥ 10 | ≥ 10 | ≥ 10 | 1 to 10 | 1 to 10 | ≥ 10 | ≥ 10 | ≥ 10 | ≥ 10 | C[C@H]1COCCN1c1cc(-c2cncc(F)c2)nc(-c2ccc(NC(=O)NCCF)cc2F)n1 [Example 67, (S)-1-(3-fluoro-4-(4-(5-fluoropyridin-3-yl)-6-(3-methylmorpholino)pyrimidin-2-yl)phenyl)-3-(2-fluoroethyl)urea] | 0.1 to 1 |
| – | ≥ 10 | ≥ 10 | – | 0.1 to 1 | – | ≥ 10 | ≥ 10 | ≥ 10 | C[C@H]1COCCN1c1nc(-c2ccc(NC(=O)NC3(CO)CCC3)cc2)cc(-c2cc(F)ccc2S(C)(=O)=O)n1 [Example 75, (S)-1-(4-(6-(5-fluoro-2-(methylsulfonyl)phenyl)-2-(3-methylmorpholino)pyrimidin-4-yl)phenyl)-3-(1-(hydroxymethyl)cyclobutyl)urea] | 0.1 to 1 |
| ≥ 10 | ≥ 10 | ≥ 10 | 0.1 to 1 | 0.1 to 1 | ≥ 10 | ≥ 10 | ≥ 10 | ≥ 10 | C[C@H]1COCCN1c1cc(-c2cncc(F)c2)nc(-c2ccc(NC(=O)NCCO)cc2F)n1 [Example 65, (S)-1-(3-fluoro-4-(4-(5-fluoropyridin-3-yl)-6-(3-methylmorpholino)pyrimidin-2-yl)phenyl)-3-(2-hydroxyethyl)urea] | 0.1 to 1 |
| 1 to 10 | 1 to 10 | ≥ 10 | 0.1 to 1 | 0.1 to 1 | ≥ 10 | ≥ 10 | ≥ 10 | ≥ 10 | O=C(NCCF)Nc1ccc(-c2nccc(N3CC4CCC(C3)O4)n2)cc1 [Example 52, 1-(4-(4-(8-oxa-3-azabicyclo[3.2.1]octan-3-yl)pyrimidin-2-yl)phenyl)-3-(2-fluoroethyl)urea] | 0.1 to 1 |
